In patent publication EP3436024B1, “3-BETA-METHOXY-PREG FOR USE IN THE TREATMENT OF TREATMENT RESISTANT DEPRESSION” (Mapreg, priority 2016, dated 2017):

How the values were obtained:
[1] = tested on: Wistar Kyoto (WKY) rats; experiment: Forced swimming test (FST), WKY rats; format: in vivo, rat; conditions: dose-ranging, MAP4343 15 mg/kg, Fig. 6B
Method: 3B-methoxy-PREG (also referred to as "MAP4343" in Example 4) was dissolved in sesame oil by sonication using a Sonifer-450 (Branson Ultrasonics Corporation, Danbury, USA) during 1 cycle of 5 pulses in sesame oil. Fluoxetine (Biotrend, Köln, Germany) and Ketamine (Sigma-Aldrich, St-Quentin Fallvier, France) were dissolved in sterile saline solution (NaCl 0.9%). The drug formulations were prepared freshly each day of treatment. MAP4343 was administered subcutaneously (ranging of 1-15 mg/Kg/day) while fluoxetine and ketamine were injected intraperitonealy (10 mg/Kg/day and 30 mg/Kg/day, respectively).
After a 6-day period of acclimatization, all experimental groups received daily successive subcutaneous (250 µl per rat) and intraperitoneal (1 ml/kg) injections. […]
Rats were submitted to the forced swimming test (FST), according the procedure initially described by (Detke et al., 1995) and slightly modified by (Bianchi et al., 2002). […] The pre-test and test sessions were recorded using a video camera placed above the cylinder for subsequent behavioral analysis. The immobility time (in sec) was blindly measured by two independent experimenters from recorded videos. […]
The effects of a dose-ranging administration of MAP4343 were tested in WI and WKY rats on their immobility time measured in FST.

[2] = molecular target: Dopaminergic D3 (Homo sapiens, UniProt P35462); experiment: CNS receptor binding assay, D3; conditions: MAP4343 10 µM; [^3H] spiperone; Human recombinant (CHO cells); read-out: % Inhibition of control specific binding
Dopaminergic D3, sequence (P35462 whole entry): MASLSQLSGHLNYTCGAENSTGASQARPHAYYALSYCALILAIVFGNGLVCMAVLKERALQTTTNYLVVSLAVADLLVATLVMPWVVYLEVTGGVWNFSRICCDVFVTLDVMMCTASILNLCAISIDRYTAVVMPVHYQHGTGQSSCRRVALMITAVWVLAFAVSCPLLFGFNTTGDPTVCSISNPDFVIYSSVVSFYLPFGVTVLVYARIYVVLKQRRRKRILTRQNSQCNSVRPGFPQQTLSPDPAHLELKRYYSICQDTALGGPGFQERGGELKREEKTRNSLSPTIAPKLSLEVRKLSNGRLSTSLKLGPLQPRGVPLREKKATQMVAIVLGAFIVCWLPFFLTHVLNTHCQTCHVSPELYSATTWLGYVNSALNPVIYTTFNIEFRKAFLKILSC
Method: (§1) MAP4343 has been screened for in vitro affinity to 80 different CNS neurotransmitters receptors using various validated binding assays.
(§2) Table 4. In vitro affinity of MAP4343 (10 µM) for CNS neurotransmitter receptors associated with side effects and/or abuse liability. Data are the average of two individual assays for each receptor and are expressed as % inhibition of the control specific binding of the reference compound. Results showing an inhibition higher than 50% are considered to represent significant effects of the test compound.

[3] = tested on: Wistar Kyoto (WKY) rats; experiment: Locomotor activity in the open-field arena, WKY rats; format: in vivo, rat; conditions: acute, MAP4343 10 mg/kg s.c., fluoxetine 10 mg/kg i.p., ketamine 30 mg/kg i.p., 3 min, Fig. 5A
Method: After a 6-day period of acclimatization, all experimental groups received daily successive subcutaneous (250 µl per rat) and intraperitoneal (1 ml/kg) injections. WI rats received injection of vehicle (sesame oil + saline) while WKY rats were randomly assigned to […], as follow: KWY rats receiving only vehicle (sesame oil + saline) and WKY rats treated with MAP4343 (10 mg/kg, s.c.; rats received in parallel i.p. injections of saline), fluoxetine (10 mg/kg i.p., rats received in parallel s.c. injections of sesame oil) or ketamine (30 mg/kg, i.p.; rats received in parallel s.c. injections of sesame oil) (see Figure 3).
After, a 6-day period of acclimatization, the acute phase of treatment started for 4 days during behavioral tests were performed (Figure 3). All animals were injected 1h30 before the starting of behavioral test.
The animals were individually placed in the open field arena (OFA) (70 x 100 x 70 cm), with a central square (35 x 50 cm), located in a 50 lux illuminated room and videotaped during 3 min using a computerized system (VideoTrack V2.5, ViewPoint, Lyon, France).
OFA allows firstly the evaluation of total locomotor activity (LMA) thereby measuring the total distance travelled in the arena (in cm). Secondly, measurements of the activity in the center of the arena like (i) the number of entries in the center of arena and (ii) the total time spent in the center of arena (in sec) provide cues of anxiety-like behavior (Prut and Belzung, 2003). All these behavioral parameters were instantaneously measured automatically with the VideoTrack V2.5 software from the videos.

[4] = molecular target: T1, Muscarinic (Cholinergic) M4 (Homo sapiens, UniProt P08173); experiment: CNS receptor binding assay, M4; conditions: MAP4343 10 µM; [^3H] 4-DAMP; Human recombinant (CHO cells); read-out: % Inhibition of control specific binding
T1 construct: expressed in transfected cells; host or cells: CHO cells
T1 sequence (P08173 whole entry): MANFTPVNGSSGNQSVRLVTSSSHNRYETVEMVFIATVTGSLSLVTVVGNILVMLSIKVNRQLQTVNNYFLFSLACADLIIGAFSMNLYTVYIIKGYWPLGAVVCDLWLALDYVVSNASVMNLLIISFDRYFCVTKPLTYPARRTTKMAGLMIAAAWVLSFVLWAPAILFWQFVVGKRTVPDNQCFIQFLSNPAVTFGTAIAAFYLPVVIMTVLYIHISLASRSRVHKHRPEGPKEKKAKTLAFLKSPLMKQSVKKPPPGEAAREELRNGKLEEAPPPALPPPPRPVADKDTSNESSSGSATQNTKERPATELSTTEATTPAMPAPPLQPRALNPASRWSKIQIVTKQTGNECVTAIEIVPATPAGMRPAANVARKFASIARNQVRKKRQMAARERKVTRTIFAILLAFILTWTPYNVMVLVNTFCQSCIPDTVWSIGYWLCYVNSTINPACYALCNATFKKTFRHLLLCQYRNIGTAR
Method: as §1, §2

[5] = molecular target: Dopaminergic D5 (Homo sapiens, UniProt P21918); experiment: CNS receptor binding assay, D5; conditions: MAP4343 10 µM; [^3H] SCH 23390; Human recombinant (GH4 cells); read-out: % Inhibition of control specific binding
Dopaminergic D5, sequence (P21918 whole entry): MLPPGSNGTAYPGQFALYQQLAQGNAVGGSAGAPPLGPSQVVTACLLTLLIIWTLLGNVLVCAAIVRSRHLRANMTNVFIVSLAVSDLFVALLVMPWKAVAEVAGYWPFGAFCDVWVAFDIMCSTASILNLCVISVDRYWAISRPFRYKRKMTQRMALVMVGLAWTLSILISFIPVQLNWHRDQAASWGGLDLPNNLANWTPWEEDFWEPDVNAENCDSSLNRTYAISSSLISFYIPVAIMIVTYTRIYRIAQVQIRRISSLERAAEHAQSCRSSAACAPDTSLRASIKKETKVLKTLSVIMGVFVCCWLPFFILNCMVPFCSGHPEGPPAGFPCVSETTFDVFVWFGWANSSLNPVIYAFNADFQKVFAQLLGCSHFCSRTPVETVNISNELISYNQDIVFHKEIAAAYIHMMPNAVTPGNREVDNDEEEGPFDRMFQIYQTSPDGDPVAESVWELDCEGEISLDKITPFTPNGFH
Method: as §1, §2

[6] = molecular target: Noradrenergic Transporter (Homo sapiens, UniProt P23975); experiment: CNS receptor binding assay, noradrenergic transporter; conditions: MAP4343 10 µM; [^3H] nisoxetine; Human recombinant (CHO cells); read-out: % Inhibition of control specific binding
Noradrenergic Transporter, sequence (P23975 whole entry): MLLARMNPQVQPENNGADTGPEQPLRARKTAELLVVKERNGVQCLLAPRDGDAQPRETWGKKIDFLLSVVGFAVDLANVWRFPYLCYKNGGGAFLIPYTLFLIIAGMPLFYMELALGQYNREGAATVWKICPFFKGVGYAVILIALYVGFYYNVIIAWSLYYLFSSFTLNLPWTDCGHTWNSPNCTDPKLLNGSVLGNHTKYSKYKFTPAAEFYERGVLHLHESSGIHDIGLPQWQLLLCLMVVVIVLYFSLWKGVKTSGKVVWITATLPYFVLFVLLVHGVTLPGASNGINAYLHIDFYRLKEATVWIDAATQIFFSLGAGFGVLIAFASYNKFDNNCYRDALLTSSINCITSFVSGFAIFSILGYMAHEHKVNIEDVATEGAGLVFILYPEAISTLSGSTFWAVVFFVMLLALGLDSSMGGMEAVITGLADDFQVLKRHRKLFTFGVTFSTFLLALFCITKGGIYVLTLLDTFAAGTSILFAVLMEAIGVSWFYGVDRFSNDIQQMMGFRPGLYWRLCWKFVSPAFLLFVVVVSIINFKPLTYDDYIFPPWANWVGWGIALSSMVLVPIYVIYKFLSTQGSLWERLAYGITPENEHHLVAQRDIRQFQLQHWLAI
Method: as §1, §2

[7] = tested on: Noradrenergic α1; experiment: CNS receptor binding assay, α1; conditions: MAP4343 10 µM; [^3H] prazosin; rat cerebral cortex
Method: as §1, §2

[8] = tested on: GABA (non-selective); experiment: CNS receptor binding assay, GABA (non-selective); conditions: MAP4343 10 µM; [^3H] GABA; rat cerebral cortex
Method: as §1, §2

[9] = molecular target: Oppioid µ (Homo sapiens, UniProt P35372); experiment: CNS receptor binding assay, opioid µ; conditions: MAP4343 10 µM; [^3H] DAMGO; Human recombinant (HEK-293 cells); read-out: % Inhibition of control specific binding
Oppioid µ, sequence (P35372 whole entry): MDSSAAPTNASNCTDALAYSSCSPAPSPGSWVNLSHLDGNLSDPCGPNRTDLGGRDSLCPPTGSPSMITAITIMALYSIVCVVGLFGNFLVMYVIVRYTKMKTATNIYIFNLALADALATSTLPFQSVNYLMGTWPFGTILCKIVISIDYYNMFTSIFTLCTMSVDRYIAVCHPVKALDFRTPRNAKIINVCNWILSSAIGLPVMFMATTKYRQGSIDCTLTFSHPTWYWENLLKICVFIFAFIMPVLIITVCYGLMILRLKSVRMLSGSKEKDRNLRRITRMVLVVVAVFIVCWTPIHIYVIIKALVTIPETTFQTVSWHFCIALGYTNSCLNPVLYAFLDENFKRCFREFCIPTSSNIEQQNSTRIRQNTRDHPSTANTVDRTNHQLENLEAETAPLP
Method: as §1, §2

[10] = molecular target: Dopaminergic D2S (Homo sapiens, UniProt P14416); experiment: CNS receptor binding assay, D2S; conditions: MAP4343 10 µM; [^3H] spiperone; Human recombinant (HEK-293 cells); read-out: % Inhibition of control specific binding
Dopaminergic D2S, sequence (P14416 1-414 isoform P14416-2): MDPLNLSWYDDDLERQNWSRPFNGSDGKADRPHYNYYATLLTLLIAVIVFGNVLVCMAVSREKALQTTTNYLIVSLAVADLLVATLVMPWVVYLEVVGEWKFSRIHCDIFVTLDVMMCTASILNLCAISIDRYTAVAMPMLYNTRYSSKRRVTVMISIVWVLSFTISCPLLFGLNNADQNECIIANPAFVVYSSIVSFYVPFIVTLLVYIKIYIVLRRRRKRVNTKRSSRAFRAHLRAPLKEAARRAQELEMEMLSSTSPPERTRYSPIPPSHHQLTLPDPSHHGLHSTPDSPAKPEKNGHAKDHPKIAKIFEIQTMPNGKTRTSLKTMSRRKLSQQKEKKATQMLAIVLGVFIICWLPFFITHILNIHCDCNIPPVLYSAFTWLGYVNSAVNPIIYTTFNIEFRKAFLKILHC
Method: as §1, §2

[11] = molecular target: Oppioid δ2 (Homo sapiens, UniProt P41143); experiment: CNS receptor binding assay, opioid δ2; conditions: MAP4343 10 µM; [^3H] DADLE; Human recombinant (CHO cells); read-out: % Inhibition of control specific binding
Oppioid δ2, sequence (P41143 whole entry): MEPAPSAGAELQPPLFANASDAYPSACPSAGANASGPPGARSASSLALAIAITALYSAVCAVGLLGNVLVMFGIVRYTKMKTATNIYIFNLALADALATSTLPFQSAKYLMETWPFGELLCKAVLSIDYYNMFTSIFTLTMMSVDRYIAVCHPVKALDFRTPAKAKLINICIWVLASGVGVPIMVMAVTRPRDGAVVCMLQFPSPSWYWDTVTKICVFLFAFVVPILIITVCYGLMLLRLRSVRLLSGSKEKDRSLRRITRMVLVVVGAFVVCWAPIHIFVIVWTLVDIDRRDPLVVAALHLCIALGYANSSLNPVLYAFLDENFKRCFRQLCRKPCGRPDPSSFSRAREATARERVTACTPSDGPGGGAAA
Method: as §1, §2

[12] = molecular target: Dopaminergic D4.4 (Homo sapiens, UniProt P21917); experiment: CNS receptor binding assay, D4.4; conditions: MAP4343 10 µM; [^3H] spiperone; Human recombinant (CHO cells); read-out: % Inhibition of control specific binding
Dopaminergic D4.4, sequence (P21917 whole entry): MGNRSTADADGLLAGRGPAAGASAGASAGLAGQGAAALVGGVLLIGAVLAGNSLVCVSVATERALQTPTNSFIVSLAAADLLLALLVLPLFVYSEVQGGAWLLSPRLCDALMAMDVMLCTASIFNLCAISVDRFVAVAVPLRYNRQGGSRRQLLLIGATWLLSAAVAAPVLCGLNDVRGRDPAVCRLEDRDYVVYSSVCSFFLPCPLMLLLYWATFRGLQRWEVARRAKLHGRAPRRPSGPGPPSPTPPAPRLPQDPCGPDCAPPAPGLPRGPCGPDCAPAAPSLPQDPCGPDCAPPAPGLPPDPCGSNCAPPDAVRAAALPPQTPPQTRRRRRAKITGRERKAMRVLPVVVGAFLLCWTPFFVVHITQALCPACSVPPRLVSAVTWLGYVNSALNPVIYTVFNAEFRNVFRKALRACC
Method: as §1, §2

[13] = molecular target: Serotoninergic 5-HT1A (Homo sapiens, UniProt P08908); experiment: CNS receptor binding assay, 5-HT1A; conditions: MAP4343 10 µM; [^3H] 8-OH-DPAT; Human recombinant (HEK-293 cells); read-out: % Inhibition of control specific binding
Serotoninergic 5-HT1A, sequence (P08908 whole entry): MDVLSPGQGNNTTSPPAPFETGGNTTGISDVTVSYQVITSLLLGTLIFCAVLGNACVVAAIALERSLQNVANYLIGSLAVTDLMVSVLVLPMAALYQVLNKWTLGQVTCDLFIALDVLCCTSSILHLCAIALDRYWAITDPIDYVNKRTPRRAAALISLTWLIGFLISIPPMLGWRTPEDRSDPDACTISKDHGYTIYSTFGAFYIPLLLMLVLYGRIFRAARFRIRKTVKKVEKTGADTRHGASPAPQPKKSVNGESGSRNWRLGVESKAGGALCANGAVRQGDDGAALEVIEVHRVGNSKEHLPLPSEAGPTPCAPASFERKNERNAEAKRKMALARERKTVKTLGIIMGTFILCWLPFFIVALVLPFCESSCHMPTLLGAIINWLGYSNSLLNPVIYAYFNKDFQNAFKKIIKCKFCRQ
Method: as §1, §2

Compound: CO[C@H]1CC[C@@]2(C)C(=CC[C@H]3[C@@H]4CC[C@H](C(C)=O)[C@@]4(C)CC[C@@H]32)C1 (stereo in doubt) [MAP4343, 3β-methoxy-pregna-5-ene-20-one]
- immobility time measured in FST, change as compared to WKY receiving vehicle alone [1]: -25%
- inhibition at 10 µM [2]: 8%
- locomotor activity (total distance travelled in the open-field arena), change as compared to WKY receiving vehicle [3]: did not modify significantly
- inhibition at 10 µM [4]: 20%
- inhibition at 10 µM [5]: -7%
- inhibition at 10 µM [6]: 3%
- % Inhibition of control specific binding [7]: 4%
- % Inhibition of control specific binding [8]: 2%
- inhibition at 10 µM [9]: 0%
- inhibition at 10 µM [10]: 6%
- inhibition at 10 µM [11]: -3%
- inhibition at 10 µM [12]: 6%
- inhibition at 10 µM [13]: 2%
